Here are results for one compound from ChEMBL document CHEMBL4321794, “Discovery and Optimization of 2-Arylquinazolin-4-ones into a Potent and Selective Tankyrase Inhibitor Modulating Wnt Pathway Activity” (J Med Chem, 2019).

One may read the clearance as the rate of elimination divided by the concentration. A high value points to efficient removal. Usually IC50 stands for the concentration at which inhibition is half-maximal. What is called fraction unbound is the share of the substance not bound to proteins or other matrix.

A short description of series [1]: Clearance in mouse. The format is ADME, organism-based. To be noted: in vivo.
Series [2] is described as follows: Intrinsic clearance in human liver microsomes assessed per mg protein in presence of NADPH by UPLC analysis. The format is ADME, Microsome. To be noted: read-out: CLH.
In series [3] the target is Poly [ADP-ribose] polymerase 2 (Homo sapiens, UniProt Q9UGN5). Nature of the series: Inhibition of N-terminal GST-tagged recombinant human PARP2 (2 to 583 residues) expressed in Baculovirus infected Sf9 cells using biotinylated substrate after 1 hr by chemiluminescence method.
Sequence of Poly [ADP-ribose] polymerase 2 (Q9UGN5 whole entry, the tested form may be a part): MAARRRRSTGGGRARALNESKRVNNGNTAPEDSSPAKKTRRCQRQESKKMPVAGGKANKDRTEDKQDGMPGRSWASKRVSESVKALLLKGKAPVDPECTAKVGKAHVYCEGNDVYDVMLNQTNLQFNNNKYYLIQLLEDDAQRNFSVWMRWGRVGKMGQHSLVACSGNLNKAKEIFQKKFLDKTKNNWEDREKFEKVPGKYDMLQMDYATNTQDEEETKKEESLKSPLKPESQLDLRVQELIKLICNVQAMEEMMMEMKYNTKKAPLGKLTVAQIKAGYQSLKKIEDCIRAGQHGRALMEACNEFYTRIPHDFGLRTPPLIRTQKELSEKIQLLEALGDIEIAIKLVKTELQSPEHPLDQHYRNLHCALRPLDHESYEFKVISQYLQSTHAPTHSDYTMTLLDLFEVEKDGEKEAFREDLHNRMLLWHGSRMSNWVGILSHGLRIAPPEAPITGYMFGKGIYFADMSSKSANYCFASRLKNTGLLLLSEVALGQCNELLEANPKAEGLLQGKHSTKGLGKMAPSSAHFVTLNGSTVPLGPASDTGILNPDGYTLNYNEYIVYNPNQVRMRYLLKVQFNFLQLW
Series [4] has as its target Protein mono-ADP-ribosyltransferase PARP6 (Homo sapiens, UniProt Q2NL67). Nature of the series: Inhibition of N-terminal GST-tagged recombinant human full length PARP6 expressed in Baculovirus infected Sf9 cells using biotinylated substrate after 1 hr by chemiluminescence method.
Series [5] has as its target T1, Protein mono-ADP-ribosyltransferase TIPARP (Homo sapiens, UniProt Q7Z3E1).
T1 sequence (Q7Z3E1 whole entry): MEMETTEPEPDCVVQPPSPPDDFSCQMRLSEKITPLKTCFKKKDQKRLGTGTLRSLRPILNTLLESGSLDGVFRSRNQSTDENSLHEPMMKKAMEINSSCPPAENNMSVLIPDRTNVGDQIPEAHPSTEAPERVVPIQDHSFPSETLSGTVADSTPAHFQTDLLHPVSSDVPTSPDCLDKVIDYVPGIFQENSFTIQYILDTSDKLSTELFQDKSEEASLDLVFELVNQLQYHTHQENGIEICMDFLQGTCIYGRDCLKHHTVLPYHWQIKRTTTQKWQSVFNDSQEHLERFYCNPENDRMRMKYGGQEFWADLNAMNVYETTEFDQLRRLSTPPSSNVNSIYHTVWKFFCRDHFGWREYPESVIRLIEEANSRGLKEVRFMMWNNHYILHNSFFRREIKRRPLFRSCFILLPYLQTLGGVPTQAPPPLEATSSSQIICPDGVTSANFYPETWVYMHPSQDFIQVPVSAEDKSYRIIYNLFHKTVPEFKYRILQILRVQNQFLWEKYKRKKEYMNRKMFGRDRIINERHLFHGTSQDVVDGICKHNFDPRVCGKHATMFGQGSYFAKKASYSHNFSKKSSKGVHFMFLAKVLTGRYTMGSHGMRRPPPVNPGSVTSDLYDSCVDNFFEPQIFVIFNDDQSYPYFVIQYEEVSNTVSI
Nature of the series: Inhibition of N-terminal FLAG-tagged recombinant human PARP7 (400 to 657 residues) expressed in Baculovirus infected Sf9 cells using biotinylated substrate after 1 hr by chemiluminescence method.

Series [6] concerns the target T2, Protein mono-ADP-ribosyltransferase PARP15 (Homo sapiens, UniProt Q460N3).
T2 sequence (Q460N3 whole entry): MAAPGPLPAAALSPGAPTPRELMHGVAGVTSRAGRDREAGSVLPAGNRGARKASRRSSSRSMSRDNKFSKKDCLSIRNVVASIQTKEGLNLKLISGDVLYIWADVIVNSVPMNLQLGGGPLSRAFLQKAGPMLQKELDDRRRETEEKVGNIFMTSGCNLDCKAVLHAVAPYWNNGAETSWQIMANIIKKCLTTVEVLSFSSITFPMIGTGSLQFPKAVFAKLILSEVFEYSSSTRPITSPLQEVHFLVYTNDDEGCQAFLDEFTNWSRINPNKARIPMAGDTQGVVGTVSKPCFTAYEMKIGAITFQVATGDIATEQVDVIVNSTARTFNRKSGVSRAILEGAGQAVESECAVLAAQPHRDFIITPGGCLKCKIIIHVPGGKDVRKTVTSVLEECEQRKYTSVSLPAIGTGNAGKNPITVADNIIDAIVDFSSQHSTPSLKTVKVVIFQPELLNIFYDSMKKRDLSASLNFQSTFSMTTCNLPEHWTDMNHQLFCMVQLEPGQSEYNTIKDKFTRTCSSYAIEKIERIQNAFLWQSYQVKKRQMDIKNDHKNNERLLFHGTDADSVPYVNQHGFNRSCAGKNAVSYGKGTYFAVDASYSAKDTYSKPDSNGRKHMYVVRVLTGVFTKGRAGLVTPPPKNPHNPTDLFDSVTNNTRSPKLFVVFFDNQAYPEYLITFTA
Nature of the series: Inhibition of human N-terminal GST-tagged PARP15 (221 to 444 residues) expressed in Escherichia coli using biotinylated substrate by chemiluminescence method.

Series [7] in a line: Intrinsic clearance in mouse hepatocytes assessed per million cells. Format: ADME, cell-based, Hepatocyte. The note with it: read-out: CLH.
Series [8] can be described thus: Intrinsic clearance in human hepatocytes assessed per million cells. Format: ADME, cell-based, Hepatocyte. To be noted: read-out: CLH.
Series [9] can be described thus: Protein binding in mouse plasma assessed as unbound fraction at 30 mg/kg, po. The format is ADME, organism-based.
Series [10] can be described thus: Time at which free-drug concentration exceeds in vitro cellular EC50 for inhibition of tankyrase 1/2 in human DLD1 cells assessed as increase in axin2 accumulation in mouse at 30 mg/kg, po. The format is organism-based. The note with it: in vivo.
Series [11] is described as follows: Time at which free-drug concentration exceeds in vitro cellular EC50 for inhibition of tankyrase 1/2 in human DLD1 cells assessed as increase in axin2 accumulation in mouse xenografted with human DLD1 at 10 mg/kg, po administered via gavage. The note with it: in vivo. The format is organism-based. On the technique in general: In xenograft studies the graft and the host belong to different species.

The subject of series [12] is Mus musculus. Nature of the series: Ex vivo inhibition of tankyrase 1/2 in human DLD1 cells xenografted in immunodeficient athymic nude mouse assessed as increase in tankyrase level in tumor lysates at 10 mg/kg, po administered via gavage by luminex based bead assay. The format is functional, organism-based. To be noted: Neoplasm, Lysate, TDE = time-dependent effect.

The subject of series [13] is Mus musculus. Nature of the series: Ex vivo inhibition of tankyrase 1/2 in human DLD1 cells xenografted in immunodeficient athymic nude mouse assessed as increase in tankyrase level in tumor lysates at 10 mg/kg, po administered via gavage measured after 12 hrs by luminex based bead assay. The format is functional, organism-based. The note with it: Neoplasm, Lysate.

Activity calls are given as the source filed them. No cut-off for these calls is given here.

Sequence of Protein mono-ADP-ribosyltransferase PARP6 (Q2NL67 whole entry): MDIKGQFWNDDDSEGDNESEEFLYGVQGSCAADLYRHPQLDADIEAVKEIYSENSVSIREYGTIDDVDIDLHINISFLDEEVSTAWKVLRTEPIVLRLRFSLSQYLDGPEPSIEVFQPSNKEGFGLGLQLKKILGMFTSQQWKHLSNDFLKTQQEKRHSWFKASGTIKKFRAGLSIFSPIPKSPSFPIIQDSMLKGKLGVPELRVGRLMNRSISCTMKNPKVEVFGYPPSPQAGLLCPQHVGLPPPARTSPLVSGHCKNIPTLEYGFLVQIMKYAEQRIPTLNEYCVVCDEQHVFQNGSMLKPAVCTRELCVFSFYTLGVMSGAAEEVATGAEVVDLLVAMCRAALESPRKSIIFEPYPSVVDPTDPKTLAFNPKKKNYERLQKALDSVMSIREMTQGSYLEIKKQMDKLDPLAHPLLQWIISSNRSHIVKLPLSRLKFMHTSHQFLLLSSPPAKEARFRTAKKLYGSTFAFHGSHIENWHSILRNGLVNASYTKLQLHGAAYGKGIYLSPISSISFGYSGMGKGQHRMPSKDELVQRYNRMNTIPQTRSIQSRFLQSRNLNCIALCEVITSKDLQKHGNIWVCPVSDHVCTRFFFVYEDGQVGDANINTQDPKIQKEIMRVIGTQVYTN

In series [1], `CC(C)(O)c1ccc(-c2nc3c(F)cc(F)cc3c(=O)[nH]2)cc1` had a clearance of 6.83 mL/min/kg. In addition, the microsomal CLint in series [2] is under 10 µL/min/mg. Moreover, the IC50 in series [3] was 1 µM; in series [4] it was over 10 µM; in [5], over 10 µM; in series [6] it was over 10 µM. Also, the figures for the hepatocyte CLint in [7] and in series [8] were 15.2 µL/min/1e6 cells and 1.25 µL/min/1e6 cells, respectively. Moreover, in [9], the unbound share (fraction unbound) is 0.086. The “T>fEC50” value in [10] is “>= 20 hr”; in [11] it was “>= 12 hr”. Also, the inhibition entry with Mus musculus [12] was “Tde”. Moreover, the inhibition entry in the series with Mus musculus [13] is “Active”.
